The values below come from patent publication US20220226299A1 (NIPPON CHEMIPHAR CO., LTD., priority 2019, published 2022).

Each structure is given as a SMILES string.

T1 sequence (O95180 whole entry): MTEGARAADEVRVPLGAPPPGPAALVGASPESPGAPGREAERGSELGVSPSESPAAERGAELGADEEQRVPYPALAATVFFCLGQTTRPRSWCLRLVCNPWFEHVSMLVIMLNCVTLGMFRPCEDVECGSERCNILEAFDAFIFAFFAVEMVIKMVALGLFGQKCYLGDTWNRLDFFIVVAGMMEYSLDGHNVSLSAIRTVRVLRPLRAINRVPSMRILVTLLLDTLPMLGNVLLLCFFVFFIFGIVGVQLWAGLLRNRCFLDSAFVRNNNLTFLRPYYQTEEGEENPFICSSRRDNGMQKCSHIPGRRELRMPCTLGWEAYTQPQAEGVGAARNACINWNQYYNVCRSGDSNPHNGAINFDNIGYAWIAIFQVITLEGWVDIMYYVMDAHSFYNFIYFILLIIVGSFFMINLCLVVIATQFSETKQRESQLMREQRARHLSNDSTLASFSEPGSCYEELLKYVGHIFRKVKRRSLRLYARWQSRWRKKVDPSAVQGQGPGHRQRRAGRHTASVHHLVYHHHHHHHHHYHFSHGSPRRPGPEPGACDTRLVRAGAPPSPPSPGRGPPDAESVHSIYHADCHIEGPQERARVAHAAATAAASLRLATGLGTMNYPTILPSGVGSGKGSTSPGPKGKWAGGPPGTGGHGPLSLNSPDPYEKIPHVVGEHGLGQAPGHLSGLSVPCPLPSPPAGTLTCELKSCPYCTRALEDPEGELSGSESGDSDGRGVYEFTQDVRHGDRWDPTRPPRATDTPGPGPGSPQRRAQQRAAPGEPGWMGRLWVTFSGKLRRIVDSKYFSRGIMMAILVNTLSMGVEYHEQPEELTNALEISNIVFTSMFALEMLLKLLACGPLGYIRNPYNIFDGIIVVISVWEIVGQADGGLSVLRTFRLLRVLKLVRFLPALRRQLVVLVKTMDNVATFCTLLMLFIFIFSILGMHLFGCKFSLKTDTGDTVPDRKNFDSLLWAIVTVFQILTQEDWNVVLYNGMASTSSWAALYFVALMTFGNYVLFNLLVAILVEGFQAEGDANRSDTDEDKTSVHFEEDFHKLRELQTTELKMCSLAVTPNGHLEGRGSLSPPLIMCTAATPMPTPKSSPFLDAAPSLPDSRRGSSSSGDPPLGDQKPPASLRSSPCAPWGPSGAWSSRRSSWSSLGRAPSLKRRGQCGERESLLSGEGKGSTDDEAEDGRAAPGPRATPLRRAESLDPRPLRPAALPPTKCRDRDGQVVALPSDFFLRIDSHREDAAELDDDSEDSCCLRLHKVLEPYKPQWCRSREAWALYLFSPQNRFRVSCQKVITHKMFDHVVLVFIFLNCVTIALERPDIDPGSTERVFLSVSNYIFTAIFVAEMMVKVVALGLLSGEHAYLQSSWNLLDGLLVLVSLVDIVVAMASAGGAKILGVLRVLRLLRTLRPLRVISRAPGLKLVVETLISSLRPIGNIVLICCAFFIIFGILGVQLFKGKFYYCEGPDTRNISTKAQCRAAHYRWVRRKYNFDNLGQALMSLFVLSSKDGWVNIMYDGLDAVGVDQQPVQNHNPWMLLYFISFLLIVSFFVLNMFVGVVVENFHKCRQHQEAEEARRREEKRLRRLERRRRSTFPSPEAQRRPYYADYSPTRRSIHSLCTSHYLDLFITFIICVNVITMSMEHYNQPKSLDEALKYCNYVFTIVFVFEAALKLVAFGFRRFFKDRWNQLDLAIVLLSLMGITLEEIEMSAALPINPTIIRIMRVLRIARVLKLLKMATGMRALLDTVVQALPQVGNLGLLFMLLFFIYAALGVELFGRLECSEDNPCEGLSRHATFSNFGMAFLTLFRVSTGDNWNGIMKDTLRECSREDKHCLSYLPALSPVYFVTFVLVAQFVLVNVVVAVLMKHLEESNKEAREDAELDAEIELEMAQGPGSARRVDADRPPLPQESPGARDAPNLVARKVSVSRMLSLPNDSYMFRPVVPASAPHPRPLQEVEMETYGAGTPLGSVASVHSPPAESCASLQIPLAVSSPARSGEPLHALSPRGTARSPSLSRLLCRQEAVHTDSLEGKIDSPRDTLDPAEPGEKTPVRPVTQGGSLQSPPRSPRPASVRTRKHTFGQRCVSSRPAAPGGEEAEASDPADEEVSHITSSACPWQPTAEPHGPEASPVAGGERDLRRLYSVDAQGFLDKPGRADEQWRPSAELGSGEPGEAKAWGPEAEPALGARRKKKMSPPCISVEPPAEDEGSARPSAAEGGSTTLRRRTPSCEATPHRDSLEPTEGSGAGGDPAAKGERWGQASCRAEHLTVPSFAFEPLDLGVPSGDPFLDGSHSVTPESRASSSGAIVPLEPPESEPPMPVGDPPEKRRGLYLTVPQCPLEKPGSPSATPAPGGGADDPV

This assay addresses T1, human Cav3.2 channels (Homo sapiens, UniProt O95180).
T1 construct: human Cav3.2 channel ORF (Open Reading Frame) gene; expressed in transfected cells; host or cells: HEK293 cells (ATCC No. CRL-1573), pcDNA3.1(+) plasmid
Kind of assay: T-type calcium blocking action: intracellular calcium (Fluo-4 AM fluorescence) in HEK293 cells steadily expressing human Cav3.2 channels. Type of assay: cell-based. Conditions: HEK293 cells expressing human Cav3.2; KCl-stimulated calcium influx, Fluo-4 fluorescence; Tables 1 to 3. The source says:
T-Type Calcium Blocking Action
(1) Construction of Cells Steadily Expressing Human Cav3.2 Channels
A sequence obtained by adding HindIII site and a kozak sequence (GCCACC) to the 5′-side of human Cav3.2 channel ORF (Open Reading Frame) gene and adding a KpnI site to the 3′-side of the gene, was incorporated into pcDNA3.1(+) (Thermo Fisher Scientific, #V790-20), and the plasmid was introduced into HEK293 cells (ATCC No. CRL-1573) according to the protocol of FuGENE (registered trademark) HD Transfection Reagent (Promega, #E2311).
(2) Method for Measuring Intracellular Calcium Concentration
The cells steadily expressing human Cav3.2 channels produced by testing method (1) were seeded on a 96-well plate (Dulbecco's modified Eagle medium (DMEM) medium containing 10% fetal bovine serum (FBS) was used as a medium). The cells were seeded and cultured for 48 hours under conditions of 37° C. and 5% CO2. Thereafter, the cells were washed with buffer A in order to remove the medium. Each well was treated with 80 μL of a fluorescent dye solution produced by mixing 22 μg of a fluorescent calcium indicator, Fluo-4 AM (Dojindo Laboratories, #F311), 20 μL of DMSO, 1 μL of 10% Pluronic F-127 (Thermo Fisher Scientific, #P6866), and 4 mL of buffer A. The cells were allowed to stand for 45 minutes at room temperature under light-shielded conditions, and then washed with buffer B in order to completely replace the solution. 70 μL of DMSO having the same concentration as that of a test compound as a negative control and 70 μL of a mixture containing 1 μM of a known blocker RQ-00311651 and the test compound as a positive control were each added to each well in a form of being contained in the buffer B. The test compound was dissolved in 100% DMSO and added at a final concentration of 0.1%. Then, the cells were further allowed to stand at room temperature under light-shielded conditions for 15 minutes and placed in a microplate reader EnVision (PerkinElmer). Background fluorescence was measured in each well, and then a 5 μg/mL grammicidin solution was added to buffer B at 10 μL/well. After 90 seconds, baseline fluorescence was measured. Thereafter, 83.8 mM KCl was added to buffer B at 20 μL/well, and an increase in fluorescence caused by calcium influx generated by the stimulus was measured for 10 seconds. A blocking percentage was calculated from a maximum fluorescence increase value from a baseline, a logarithmic value of a compound concentration and blockery activity were plotted, and thereby an IC50 value was calculated. In the measurement, fluorescence at 510 nm that was emitted when the cells were irradiated with excitation light at 485 nm was observed.
Buffer A: 140 mM NaCl, 5 mM KCl, 1 mM MgCl2, 0.5 mM CaCl2, 10 mM Glucose, 10 mM HEPES, pH 7.3
Buffer B: 137.9 mM Choline-Cl, 4.1 mM KCl, 1 mM MgCl2, 0.5 mM CaCl2, 10 mM Glucose, 10 mM HEPES, pH 7.3
A general note: Calcium assays in cells follow changes in intracellular calcium, usually with a dye or a luminescent sensor.
For the molecule `O=C(Cc1ccc(C2CC2)cc1)N[C@@H]1CCN(c2nc(C(F)(F)F)cs2)C1` [Example 16, (R)-2-(4-cyclopropylphenyl)-N-(1-(4-(trifluoromethyl)thiazol-2-yl)pyrrolidin-3-yl)acetamide], the IC50 (usually the concentration needed to halve the response being measured) amounted to 320 nM.
With `CC(C)Cc1ccc(C(C)C(=O)N[C@@H]2CCN(c3cncc(C(F)(F)F)c3)C2)cc1` (stereo partly drawn) [Example 17, 2-(4-Isobutylphenyl)-N—((R)-1-(5-(trifluoromethyl)pyridin-3-yl)pyrrolidin-3-yl)propanamide] the figure was 380 nM.
With `Cc1ncc(N2CC[C@@H](NC(=O)Cc3ccc(C4CC4)cc3)C2)cc1C(F)(F)F` [Example 18, (R)-2-(4-cyclopropylphenyl)-N-(1-(6-methyl-5-(trifluoromethyl)pyridin-3-yl)pyrrolidin-3-yl)acetamide] the figure was 90 nM.
Next, `CC(C)(O)c1cncc(N2CC[C@@H](NC(=O)Cc3ccc(C4CC4)cc3)C2)c1` [Example 19, (R)-2-(4-cyclopropylphenyl)-N-(1-(5-(2-hydroxypropan-2-yl)pyridin-3-yl)pyrrolidin-3-yl)acetamide]: 3500 nM.
Turning to `NC(=O)C1(NC(=O)Cc2ccc(C3CC3)cc2)CCN(c2cncc(C(F)(F)F)c2)C1` (stereo not drawn) [Example 21, 3-(2-(4-cyclopropylphenyl)acetamido)-1-(5-(trifluoromethyl)pyridin-3-yl)pyrrolidine-3-carboxyamide], the IC50 was found to be 1200 nM.
Next, `O=C(Cc1ccc(O)cc1)N[C@@H]1CCN(c2cncc(C(F)(F)F)c2)C1` [Example 22, (R)-2-(4-hydroxyphenyl)-N-(1-(5-(trifluoromethyl)pyridin-3-yl)pyrrolidin-3-yl)acetamide]: 1600 nM.
For `O=C(Cc1ccc(N2CCS(=O)(=O)CC2)cc1)N[C@@H]1CCN(c2cncc(C(F)(F)F)c2)C1` [Example 23, (R)-2-(4-(1,1-dioxidethiomorpholino)phenyl)-N-(1-(5-(trifluoromethyl)pyridin-3-yl)pyrrolidin-3-yl)acetamide], the IC50 was determined as 150 nM.
Next, `O=C(N[C@@H]1CCN(c2cncc(C(F)(F)F)c2)C1)C1(c2ccc(Cl)cc2)CC1` [Example 24, (R)-1-(4-chlorophenyl)-N-(1-(5-(trifluoromethyl)pyridin-3-yl)pyrrolidin-3-yl)cyclopropane-1-carboxyamide]: 720 nM.
Take `O=C(N[C@@H]1CCN(c2cncc(C(F)(F)F)c2)C1)C(O)c1ccc(Br)cc1` (stereo partly drawn) [Example 25, 2-(4-Bromophenyl)-2-hydroxy-N—((R)-1-(5-(trifluoromethyl)pyridin-3-yl)pyrrolidin-3-yl)acetamide]: the 50% inhibitory concentration (IC50) was determined as 2000 nM.
For the molecule `C[Si](C)(C)c1ccc(CC(=O)N[C@@H]2CCN(c3cncc(C(F)(F)F)c3)C2)cc1` [Example 26, (R)—N-(1-(5-(trifluoromethyl)pyridin-3-yl)pyrrolidin-3-yl)-2-(4-(trimethylsilyl)phenyl)acetamide], the half-inhibitory concentration (IC50) was determined as 150 nM.
With `CC(C)(O)COc1ccc(CC(=O)N[C@@H]2CCN(c3cncc(C(F)(F)F)c3)C2)cc1` [Example 27, (R)-2-(4-(2-hydroxy-2-methylpropoxy)phenyl)-N-(1-(5-(trifluoromethyl)pyridin-3-yl)pyrrolidin-3-yl)acetamide] the figure was 700 nM.
Next, `O=C(Cc1ccc(C2CC2)cc1)N[C@H]1CN(c2cncc(C(F)(F)F)c2)C[C@@H]1F` [Example 28, 2-(4-cyclopropylphenyl)-N-((3S,4S)-4-fluoro-1-(5-(trifluoromethyl)pyridin-3-yl)pyrrolidin-3-yl)acetamide]: 200 nM.
Next, `CN(C)c1ccc(CC(=O)N[C@@H]2CCN(c3cncc(C(F)(F)F)c3)C2)cc1` [Example 29, (R)-2-(4-(dimethylamino)phenyl)-N-(1-(5-(trifluoromethyl)pyridin-3-yl)pyrrolidin-3-yl)acetamide]: 40 nM; `O=C(Cc1ccc([N+](=O)[O-])cc1)N[C@@H]1CCN(c2cncc(C(F)(F)F)c2)C1` [Example 30, (R)-2-(4-nitrophenyl)-N-(1-(5-(trifluoromethyl)pyridin-3-yl)pyrrolidin-3-yl)acetamide]: 650 nM; `CC(C)Cc1ccc([C@H](C)C(=O)N[C@@H]2CCN(c3cncc(C(F)(F)F)c3)C2)cc1` [Example 31, (S)-2-(4-isobutylphenyl)-N—((R)-1-(5-(trifluoromethyl)pyridin-3-yl)pyrrolidin-3-yl)propanamide]: 210 nM.
Consider `O=C(Cc1ccc(C(F)(F)F)c(F)c1)N[C@@H]1CCN(c2cncc(C(F)(F)F)c2)C1` [Example 32, (R)-2-(3-fluoro-4-(trifluoromethyl)phenyl)-N-(1-(5-(trifluoromethyl)pyridin-3-yl)pyrrolidin-3-yl)acetamide], for which the IC50 worked out at 150 nM.
Next, `Nc1ccc(CC(=O)N[C@@H]2CCN(c3cncc(C(F)(F)F)c3)C2)cc1` [Example 33, (R)-2-(4-aminophenyl)-N-(1-(5-(trifluoromethyl)pyridin-3-yl)pyrrolidin-3-yl)acetamide]: 1000 nM; `O=C(N[C@@H]1CCN(c2cncc(C(F)(F)F)c2)C1)C1(c2ccc(C(F)(F)F)cc2)CC1` [Example 34, (R)-1-(4-(trifluoromethyl)phenyl)-N-(1-(5-(trifluoromethyl)pyridin-3-yl)pyrrolidin-3-yl)cyclopropane-1-carboxyamide]: 240 nM.
With `CC(=O)Nc1ccc(CC(=O)N[C@@H]2CCN(c3cncc(C(F)(F)F)c3)C2)cc1` [Example 35, (R)-2-(4-acetamidophenyl)-N-(1-(5-(trifluoromethyl)pyridin-3-yl)pyrrolidin-3-yl)acetamide] the figure was 630 nM.
For `N#CC1(NC(=O)Cc2ccc(C3CC3)cc2)CCN(c2cncc(C(F)(F)F)c2)C1` (stereo not drawn) [Example 36, N-(3-cyano-1-(5-(trifluoromethyl)pyridin-3-yl)pyrrolidin-3-yl)-2-(4-cyclopropylphenyl)acetamide], the IC50 came out at 980 nM.
Next, `COC(=O)C1(NC(=O)Cc2ccc3cc[nH]c3c2)CCN(c2cncc(C(F)(F)F)c2)C1` (stereo not drawn) [Example 37, Methyl 3-(2-(1H-indol-6-yl)acetamido)-1-(5-(trifluoromethyl)pyridin-3-yl)pyrrolidine-3-carboxylate]: 27 nM; `COC(=O)C1(NC(=O)Cc2ccc(C(F)(F)F)cc2)CCN(c2cncc(C(F)(F)F)c2)C1` (stereo not drawn) [Example 38, Methyl 3-(2-(4-(trifluoromethyl)phenyl)acetamido)-1-(5-(trifluoromethyl)pyridin-3-yl)pyrrolidine-3-carboxylate]: 35 nM.
With `O=C(N[C@@H]1CCN(c2cncc(C(F)(F)F)c2)C1)[C@H]1C[C@@H]1c1nc2ccccc2o1` [Example 39, (1S,2S)-2-(benzo[d]oxazol-2-yl)-N—((R)-1-(5-(trifluoromethyl)pyridin-3-yl)pyrrolidin-3-yl)cyclopropane-1-carboxyamide] the figure was 22 nM; with `O=C(Cc1ccc(N2CCOCC2)cc1)N[C@@H]1CCN(c2nc(C(F)(F)F)cs2)C1` [Example 40, (R)-2-(4-morpholinophenyl)-N-(1-(4-(trifluoromethyl)thiazol-2-yl)pyrrolidin-3-yl)acetamide], 300 nM.
In the case of `COC(=O)C1(NC(=O)Cc2ccc(N3CCOCC3)cc2)CCN(c2cncc(C(F)(F)F)c2)C1` (stereo not drawn) [Example 41, Methyl 3-(2-(4-morpholinophenyl)acetamido)-1-(5-(trifluoromethyl)pyridin-3-yl)pyrrolidine-3-carboxylate], the concentration for half-maximal inhibition (IC50) was 25 nM.
As for `O=C(Cc1ccc(N2CCOCC2)cc1)N[C@@H]1CCN(c2ccc(C(F)(F)F)nc2)C1` [Example 42, (R)-2-(4-morpholinophenyl)-N-(1-(6-(trifluoromethyl)pyridin-3-yl)pyrrolidin-3-yl)acetamide], the concentration for half-maximal inhibition (IC50) worked out at 250 nM.
As to `CCC1(NC(=O)Cc2ccc(C3CC3)cc2)CCN(c2cncc(C(F)(F)F)c2)C1` (stereo not drawn) [Example 43, 2-(4-cyclopropylphenyl)-N-(3-ethyl-1-(5-(trifluoromethyl)pyridin-3-yl)pyrrolidin-3-yl)acetamide], the concentration for half-maximal inhibition (IC50) was found to be 190 nM.
